Where two headings read alike, the source gives them in different places. Blank lines part the entries; values can stand above or below the compound they belong to.
Key:
BxPC-3 cells = assay: MTS cell proliferation assay, pancreatic cancer cells; conditions: read-out: inhibition of pancreatic cancer cell lines IC50, BxPC-3
HupT3 cells = assay: as above; conditions: read-out: inhibition of pancreatic cancer cell lines IC50, Hup T3
MiaPaca-2 cells = assay: as above; conditions: read-out: inhibition of pancreatic cancer cell lines IC50, Mia Paca-2
Panc04.03 cells [1] = assay: as above; conditions: read-out: inhibition of pancreatic cancer cell lines IC50, Panc 04.03
SU86.86 cells = assay: as above; conditions: read-out: inhibition of pancreatic cancer cell lines IC50, SU 86.86
HDAC1 = HDAC1 (Homo sapiens, UniProt Q13547); assay: HDAC isoform inhibition assay
Sequence of HDAC1 (Q13547 whole entry, canonical isoform): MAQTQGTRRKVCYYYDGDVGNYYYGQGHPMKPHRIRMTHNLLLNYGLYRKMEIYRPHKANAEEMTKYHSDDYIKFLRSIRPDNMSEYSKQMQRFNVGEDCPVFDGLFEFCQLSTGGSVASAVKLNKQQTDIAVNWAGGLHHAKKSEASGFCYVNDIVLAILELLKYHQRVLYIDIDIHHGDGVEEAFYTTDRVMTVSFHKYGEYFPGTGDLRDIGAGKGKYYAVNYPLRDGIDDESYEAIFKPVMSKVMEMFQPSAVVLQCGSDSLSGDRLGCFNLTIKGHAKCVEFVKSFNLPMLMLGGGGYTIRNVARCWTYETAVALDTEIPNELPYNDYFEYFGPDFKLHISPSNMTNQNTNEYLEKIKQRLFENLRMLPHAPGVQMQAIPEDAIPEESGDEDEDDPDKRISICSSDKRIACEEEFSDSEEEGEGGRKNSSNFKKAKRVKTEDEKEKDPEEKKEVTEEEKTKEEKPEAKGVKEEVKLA

HDAC3 = HDAC3 (Homo sapiens, UniProt O15379); assay: HDAC isoform inhibition assay
Sequence of HDAC3 (O15379 whole entry, canonical isoform): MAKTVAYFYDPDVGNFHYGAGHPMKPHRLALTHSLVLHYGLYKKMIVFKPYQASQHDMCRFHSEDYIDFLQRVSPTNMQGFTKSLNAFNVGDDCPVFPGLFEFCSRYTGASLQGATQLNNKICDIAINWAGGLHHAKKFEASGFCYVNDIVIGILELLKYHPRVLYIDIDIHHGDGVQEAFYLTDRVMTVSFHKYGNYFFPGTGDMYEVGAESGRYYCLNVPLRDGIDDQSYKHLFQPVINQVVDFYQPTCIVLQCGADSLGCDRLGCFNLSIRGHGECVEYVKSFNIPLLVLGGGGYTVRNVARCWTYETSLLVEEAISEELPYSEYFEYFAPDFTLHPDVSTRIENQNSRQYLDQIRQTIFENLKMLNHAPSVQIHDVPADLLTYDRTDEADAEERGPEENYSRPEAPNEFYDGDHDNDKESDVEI
Sequence of HDAC3 (Q9Y618 395-489 partner limits assumed): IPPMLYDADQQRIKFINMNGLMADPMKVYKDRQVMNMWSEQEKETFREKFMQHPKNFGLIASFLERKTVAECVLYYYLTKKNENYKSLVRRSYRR

HDAC6 = target: T1, HDAC6 (Homo sapiens, UniProt Q9UBN7); assay: HDAC isoform inhibition assay
T1 sequence (Q9UBN7 1-1215): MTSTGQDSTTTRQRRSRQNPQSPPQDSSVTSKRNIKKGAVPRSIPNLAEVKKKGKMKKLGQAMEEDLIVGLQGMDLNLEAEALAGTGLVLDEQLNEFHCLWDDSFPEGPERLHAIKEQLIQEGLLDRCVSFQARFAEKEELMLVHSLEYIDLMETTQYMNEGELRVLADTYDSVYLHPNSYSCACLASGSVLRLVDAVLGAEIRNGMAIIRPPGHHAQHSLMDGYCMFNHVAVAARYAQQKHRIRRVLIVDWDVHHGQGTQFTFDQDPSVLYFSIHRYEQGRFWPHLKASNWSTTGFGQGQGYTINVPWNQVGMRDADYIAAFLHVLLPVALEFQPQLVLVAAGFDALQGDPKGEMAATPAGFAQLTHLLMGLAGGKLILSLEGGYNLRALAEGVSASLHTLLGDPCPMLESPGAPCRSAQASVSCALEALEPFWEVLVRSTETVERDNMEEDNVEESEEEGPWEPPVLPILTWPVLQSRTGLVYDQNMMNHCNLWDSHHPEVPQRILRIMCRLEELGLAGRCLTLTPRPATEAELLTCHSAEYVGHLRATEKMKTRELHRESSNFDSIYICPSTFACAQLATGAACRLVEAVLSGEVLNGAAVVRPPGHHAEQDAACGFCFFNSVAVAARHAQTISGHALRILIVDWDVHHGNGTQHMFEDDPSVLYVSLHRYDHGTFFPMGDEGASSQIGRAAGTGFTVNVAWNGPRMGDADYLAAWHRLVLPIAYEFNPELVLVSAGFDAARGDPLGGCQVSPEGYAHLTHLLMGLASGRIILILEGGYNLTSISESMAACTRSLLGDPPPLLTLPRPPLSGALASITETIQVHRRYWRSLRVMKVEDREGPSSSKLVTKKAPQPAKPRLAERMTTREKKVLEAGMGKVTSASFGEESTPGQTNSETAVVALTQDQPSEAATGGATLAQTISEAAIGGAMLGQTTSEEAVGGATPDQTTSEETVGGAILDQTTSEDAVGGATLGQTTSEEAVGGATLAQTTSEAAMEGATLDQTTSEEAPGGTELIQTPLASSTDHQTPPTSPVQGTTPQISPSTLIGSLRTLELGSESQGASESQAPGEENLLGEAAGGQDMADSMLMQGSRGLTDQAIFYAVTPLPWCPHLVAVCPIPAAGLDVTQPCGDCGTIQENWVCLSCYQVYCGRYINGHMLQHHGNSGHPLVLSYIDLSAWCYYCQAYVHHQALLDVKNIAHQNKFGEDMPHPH

HDAC2 = HDAC2 (Homo sapiens, UniProt Q92769); assay: HDAC isoform inhibition assay
Sequence of HDAC2 (Q92769 whole entry, canonical isoform): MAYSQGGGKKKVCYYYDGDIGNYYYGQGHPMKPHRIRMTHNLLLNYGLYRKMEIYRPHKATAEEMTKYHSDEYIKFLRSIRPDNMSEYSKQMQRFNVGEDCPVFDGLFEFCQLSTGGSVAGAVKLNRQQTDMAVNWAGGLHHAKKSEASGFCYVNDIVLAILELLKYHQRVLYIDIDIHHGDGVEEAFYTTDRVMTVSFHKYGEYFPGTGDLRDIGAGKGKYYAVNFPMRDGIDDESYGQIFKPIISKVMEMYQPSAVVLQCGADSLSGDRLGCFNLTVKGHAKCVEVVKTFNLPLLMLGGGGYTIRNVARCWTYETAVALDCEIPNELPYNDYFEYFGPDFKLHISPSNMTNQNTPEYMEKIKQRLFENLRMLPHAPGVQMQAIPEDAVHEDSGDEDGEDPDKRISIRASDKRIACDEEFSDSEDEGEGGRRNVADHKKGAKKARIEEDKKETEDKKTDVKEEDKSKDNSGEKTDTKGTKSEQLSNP

HDAC8 = target: T2, HDAC8 (Homo sapiens, UniProt Q9BY41); assay: HDAC isoform inhibition assay
T2 sequence (Q9BY41 1-377): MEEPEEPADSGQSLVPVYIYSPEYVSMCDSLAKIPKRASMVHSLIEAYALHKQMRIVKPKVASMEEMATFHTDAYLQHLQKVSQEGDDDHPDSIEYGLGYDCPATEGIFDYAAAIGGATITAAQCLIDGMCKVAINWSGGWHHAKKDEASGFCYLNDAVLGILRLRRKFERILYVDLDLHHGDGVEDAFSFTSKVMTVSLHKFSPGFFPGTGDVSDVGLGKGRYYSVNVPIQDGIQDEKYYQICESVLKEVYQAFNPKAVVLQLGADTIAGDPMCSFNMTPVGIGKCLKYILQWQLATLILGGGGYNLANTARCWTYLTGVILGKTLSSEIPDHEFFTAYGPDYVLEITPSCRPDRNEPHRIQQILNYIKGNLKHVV

HDAC10 = target: T3, HDAC10 (Homo sapiens, UniProt Q969S8); assay: HDAC isoform inhibition assay
T3 sequence (Q969S8 1-669): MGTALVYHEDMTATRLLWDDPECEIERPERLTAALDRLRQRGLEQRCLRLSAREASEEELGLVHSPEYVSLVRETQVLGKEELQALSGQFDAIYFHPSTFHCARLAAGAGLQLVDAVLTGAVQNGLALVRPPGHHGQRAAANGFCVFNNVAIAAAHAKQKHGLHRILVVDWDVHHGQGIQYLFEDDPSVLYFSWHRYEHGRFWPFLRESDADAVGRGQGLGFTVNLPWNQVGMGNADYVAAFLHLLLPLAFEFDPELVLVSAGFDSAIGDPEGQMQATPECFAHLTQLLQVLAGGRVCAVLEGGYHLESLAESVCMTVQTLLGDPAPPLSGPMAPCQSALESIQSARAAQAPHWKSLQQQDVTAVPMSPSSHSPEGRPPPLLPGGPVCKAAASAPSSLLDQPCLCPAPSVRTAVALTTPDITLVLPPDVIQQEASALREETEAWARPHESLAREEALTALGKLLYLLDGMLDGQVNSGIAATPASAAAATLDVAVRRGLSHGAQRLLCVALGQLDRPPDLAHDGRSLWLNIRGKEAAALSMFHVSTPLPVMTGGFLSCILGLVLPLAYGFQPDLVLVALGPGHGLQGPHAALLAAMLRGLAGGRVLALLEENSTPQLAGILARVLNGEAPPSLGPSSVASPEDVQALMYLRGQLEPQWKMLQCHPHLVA

Panc04.03 cells [2] = assay: Cell cycle analysis by flow cytometry; format: cell-based; conditions: 5 µM for 24 h, vs vehicle (DMSO)
p21 in BXPC-3 cell line = assay: Immunoblot of CDK inhibitor p21 expression; format: cell-based; conditions: 5 µM for 18 h, vs vehicle (DMSO)
[3] = system: SU86.86 and Panc04.03 xenografts; assay: Xenograft tumor model, SU86.86 and Panc04.03, immunoblot of tumor proteins; format: in vivo, mouse

IC50 (BxPC-3 cells; Homo sapiens, BXPC-3, 72 h): 0.2 µM | IC50 (HupT3 cells; Homo sapiens, HuP-T3, 72 h): 0.05 µM | IC50 (MiaPaca-2 cells; Homo sapiens, MIA PaCa-2, 72 h): 0.1 µM | IC50 (Panc04.03 cells [1]; Homo sapiens, Panc 04.03, 72 h): 0.1 µM | IC50 (SU86.86 cells; Homo sapiens, SU.86.86, 72 h): 1 µM | IC50 (HDAC1): 0.00506 µM | IC50 (HDAC3): 0.00339 µM | IC50 (HDAC6): 0.00385 µM
Compound: COc1ccc(-n2cc(-c3cccc(NC(=O)CCCCCCC(=O)NO)c3)nn2)cc1F [4h, Octanedioic acid {3-[1-(3-fluoro-4-methoxyphenyl)-1H-[1,2,3]-triazol-4-yl]phenyl}amide hydroxyamide]

IC50 (HupT3 cells; Homo sapiens, HuP-T3, 72 h): 0.8 µM
Compound: O=C(CCCCCCC(=O)Nc1ccccc1)NO [SAHA (1a), suberoylanilide hydroxamic acid, reference compound]

fold more potent than compound 4a, HDAC1 (HDAC1; ratio of IC50 vs 4a): 2- to 3 fold | fold more potent than compound 4a, HDAC2 (HDAC2): 2- to 3 fold | fold more potent than compound 4a, HDAC3 (HDAC3): 2- to 3 fold | fold more potent than compound 4a, HDAC8 (HDAC8; ratio of IC50 vs 4a): 2- to 3 fold | fold more potent than compound 4a, HDAC10 (HDAC10; ratio of IC50 vs 4a): 2- to 3 fold | fold more potent than compound 4a, HDAC6 (HDAC6; ratio of IC50 vs 4a): 2- to 3 fold
Compound: O=C(CCCCCCC(=O)Nc1cccc(-c2cn(C3CCCCC3)nn2)c1)NO [compound 4j, Octanedioic acid [3-(1-cyclohexyl-1H-[1,2,3]triazol-4-yl)phenyl]amide hydroxyamide]

Compound: Octanedioic acid (2-aminophenyl)amide [3-(1-phenyl-1H-[1,2,3] triazol-4-yl)phenyl]amide [12a]
IC50 (BxPC-3 cells; 72 h post treatment): > 50 µM | IC50 (HupT3 cells; 72 h post treatment): > 50 µM | IC50 (MiaPaca-2 cells; 72 h post treatment): > 50 µM | IC50 (Panc04.03 cells [1]; 72 h post treatment): > 50 µM | IC50 (SU86.86 cells; 72 h post treatment): 32 µM | IC50 (HDAC3; read-out: IC50 HDAC3): 0.122 ± 0.009 µM | IC50 (HDAC8; read-out: IC50 HDAC8, tested at Nanosyn, 17 hours at 25 °C): > 30 µM | IC50 (HDAC10; read-out: IC50 HDAC10, tested at Nanosyn, 17 hours at 25 °C): > 30 µM | IC50 (HDAC6; read-out: IC50 HDAC6, tested at Nanosyn, 17 hours at 25 °C): > 30 µM

IC50 (BxPC-3 cells; Homo sapiens, BXPC-3, 72 h): 1 µM | IC50 (HupT3 cells; Homo sapiens, HuP-T3, 72 h): 0.2 µM | IC50 (MiaPaca-2 cells; Homo sapiens, MIA PaCa-2, 72 h): 0.2 µM | IC50 (Panc04.03 cells [1]; Homo sapiens, Panc 04.03, 72 h): 1 µM | IC50 (SU86.86 cells; Homo sapiens, SU.86.86, 72 h): 1 µM | IC50 (HDAC1): 0.00304 µM | IC50 (HDAC6): 0.0076 µM
Compound: O=C(CCCCCCC(=O)Nc1cccc(-c2cn(-c3ccc(CO)cc3)nn2)c1)NO [4f, Octanedioic acid hydroxyamide {3-[1-(4-hydroxymethylphenyl)-1H-[1,2,3]triazol-4-yl]phenyl}amide]

IC50 (Panc04.03 cells [1]; Homo sapiens, Panc 04.03, 72 h): < 0.5 µM
Compound: O=C(CCCCCCC(=O)Nc1cccc(-c2cn(-c3ccccc3)nn2)c1)NO [compound 4a, octanedioic acid hydroxyamide[3-(1-phenyl-1H-[1,2,3]triazol-4-yl)phenyl]amide]
effect on cell cycle profile (Panc04.03 cells [2]): loss of S-phase cells and an increase in the percentage of cells in G1 | expression of p21 protein (p21 in BXPC-3 cell line): increased expression of p21 | expression of CDK inhibitors p15, p16, p21, p27 and p57 in xenograft tumors ([3]; 10 and 100 mg/kg i.p. every 12 h for 48 h, athymic nude mice): re-activated | pancreatic cancer cell growth in vivo ([3]; pancreatic tumor cell line xenografts, preliminary in vivo evaluation): suppresses pancreatic cancer cell growth in vivo
